Results from patent US20210137854A1, “TAAR Receptor Agonists for the Treatment of Alopecia” (APPLIED BIOLOGY, INC., priority 2018, published 2021).

Columns and labels:
Type in all cases: in vivo, human
[1] = tested on: scalp hair follicles; experiment: Epilation force threshold for plucking scalp hair (trichotillometer)
Description: To evaluate the effect of a topically applied TAAR agonist combination on the force required to pluck hairs from the scalp, a hand-held spring dynamometer, or “trichotillometer” was used. The trichotillometer records the maximum force threshold, in grams, required to pluck a single hair from the scalp; the performance and statistical variance of the instrument have been reported previously. […] The frontal area of scalp was divided into two 8×10 cm^2 areas. On the right side 0.5 mL of a placebo vehicle was applied. On the left side, 0.5 mL a 12% tyramine solution was applied. After 45 minutes, ten hairs were plucked from each of the target areas with the trichotillometer.

[2] = Cardiac or hemodynamic changes during topical α1-AR agonist studies; conditions: subjects sampled during both studies
Description: It is recognized that […] of the α1 adrenergic receptor (α1-AR), a G-protein coupled receptor, expressed on the arrector pili muscle.

[3] = tested on: scalp hair follicles; experiment: Hair shedding during brushing after topical solution versus placebo
Description: Participants included in the study were female subjects between ages of 18 and 60 who frequently use traumatic hair care practices, such as tight braids, head scarves, ponytails, extensions, hair rollers, hair weaves and heated styling appliances such as blow dryers, flat irons, heat setters and curling irons. Excluded subjects were those who experienced uncontrolled hypertension, those who were pregnant or breastfeeding, those who were diagnosed with pattern hair loss, or those who experienced other hair loss in conjunction with female pattern hair loss. Overall, fifteen female subjects, aged 24 to 40 years, participated in the study.
On day 1, subjects were instructed to wash their hair. On day 2, subjects were instructed to apply 1 mL of placebo solution containing vehicle and brush targeted area after 30 minutes. Brushing was conducted to frontal hair with regular brush in size of 8×10 cm^2. On day 3, subjects were instructed again to wash their hair. On day 4, subjects were instructed to apply 1 mL of 10% m-octopamine hydrochloride solution on targeted area and brush after 30 minutes.
The study was conducted over 4 days. On day 1, subjects were instructed to wash their hair. […]
Hair Shedding: To measure hair loss during cosmetic procedures, a 4-day protocol was designed. […] After each clinical procedure, the investigator counted the hairs collected on each brush. […]

SMILES: CNC[C@H](O)c1cccc(O)c1 [phenylephrine]
- increase in epilatory force threshold for plucking hair follicles ([1]; following topical application, Examples 5 and 6, FIGS. 4-5): 172%
- increase in average threshold of force required to pluck hair ([1]; pilot study of 15 female subjects): 172%
- cardiac or hemodynamic changes [2]: no cardiac or hemodynamic changes were observed
- subjects with reduced shedding compared to days using placebo solution ([3]; Examples 7 and 9, blinded study, female subjects ages 18-40): 80%
- reduction in hairs lost (shedding) during brushing ([3]; earlier studies of the inventors, phenylephrine 15 female subjects, AB-102 cohort of 40 women): 40%
